This note sets out measurements from patent US11918552B2, “N-acetylcysteine for use as antibacterial agent” (priority 2016, dated 2024).

The MIC is the smallest concentration in the dilution series that meets the test's criterion for growth inhibition. Read a high MIC as a less susceptible organism.

Converted amounts (≈) assume the structure as drawn.

Test [1] has as its system S. maltophilia clinical isolates. As to the kind of experiment: MIC by broth microdilution. Particulars: Stenotrophomonas maltophilia. Type of test: cell-based. (Broth dilution looks for growth in wells or tubes with falling amounts of substance.)
The test system of test [2] is BCC (B. cepacia, B. cenocepacia, B. multivorans, B. metallica, B. seminalis, B. stabilis) clinical isolates. The test can be described thus: organism not typed. Type of test: cell-based, Burkholderia cepacia complex.
In test [3] the test system is S. maltophilia isolates. The test can be described thus: Effect of sub-MIC concentrations on growth curves. It counts as cell-based, Stenotrophomonas maltophilia. Particulars: sub-MIC concentrations (4 and 8 mg/ml), all 4 tested S. maltophilia isolates.
For test [4], the system named is BCC isolates. The test can be described thus: Effect of sub-MIC concentrations on growth curves. It counts as cell-based, Burkholderia cepacia complex. Particulars: sub-MIC concentrations (4 and 8 mg/ml), all 4 tested BCC isolates.
Test [5] relates to S. maltophilia isolates. As to the kind of experiment: Time-kill assay. Type of test: cell-based, Stenotrophomonas maltophilia. The note with it: NAC 32 mg/ml.
Test [6] concerns BCC isolates. As to the kind of experiment: Time-kill assay. The note with it: NAC 32 mg/ml. It counts as cell-based, Burkholderia cepacia complex.
The subject of the next test is S. maltophilia biofilm. The test can be described thus: Inhibition of biofilm formation, MBEC High-Throughput Assay, viable cell count. Type of test: cell-based, Stenotrophomonas maltophilia. The note with it: NAC 4, 8 and 16 mg/ml, all S. maltophilia isolates.
The next test deals with BCC biofilm. The description is as above. The note with it: NAC 4, 8 and 16 mg/ml, two BCC isolates. It counts as cell-based, Burkholderia cepacia complex.

`CC(=O)N[C@@H](CS)C(=O)O` [NAC, N-acetylcysteine]: the MIC in test [1] (nine of 16 S. maltophilia clinical isolates) stood at 16 mg/mL (≈ 98 mM); in test [1] (remaining S. maltophilia isolates (of 16)), 32 mg/mL (≈ 196 mM); in test [2] (remaining BCC isolates (of 16)) it was 32 mg/mL (≈ 196 mM); in test [2] (seven of 16 BCC clinical isolates) it was 16 mg/mL (≈ 98 mM). For the same compound, the Effect on growth entry with S. maltophilia isolates [3] and with BCC isolates [4] was “slowed down the growth” each time. Also, the “Reduction of bacterial inoculum (bactericidal)” value in the test on S. maltophilia isolates [5] (one S. maltophilia isolate) and in the test on BCC isolates [6] (one BCC isolate) was “more than 3 logs” each time. Besides, the “Reduction of bacterial inoculum” value in the test with S. maltophilia isolates [5] (remaining S. maltophilia isolates) and in the test with BCC isolates [6] (remaining BCC isolates) was < 1 log CFU/ml throughout. The “Inhibition of biofilm formation” value in the test with S. maltophilia biofilm and with BCC biofilm was “inhibit biofilm formation in a dose-dependent fashion” throughout.
